Molecules are shown by their SMILES.

From patent US20230255906A1, “Targeting Serpin B9 in Cancer” (The Brigham and Women`s Hospital, Inc., priority 2020, published 2023) come the findings set out here.

In test [1] the test system is 4T1 breast tumors. Nature of the test: 4T1 breast tumor model in BALB/c mice. Conditions: i.p. twice a day 14 days. Type of test: in vivo, mouse. How it is done: (§1) Mice were anesthetized with isoflurane, and tumor cell lines (B16, A375, and 4T1) were gently injected subcutaneously in the flanks or mammary glands of mice. One hundred thousand cells (1×10^5 cells) were injected per mouse for most of the experiments. However, twenty-five thousand cells (25×10^3 cells) were injected per mouse for the experiments using the compound of Formula (III). Upon 4 hrs post-implantation, 300 μg of the compound of Formula (III) was administered twice a day intraperitoneally for 14 days. Tumor growth was monitored three times per week by digital caliper (Fisherbrand™ Traceable™ Digital Calipers).
Sb9 is highly expressed in human primary breast tumor cells (FIG. 6D) and in the stromal cells within the TME (FIGS. 6D-6E). Whether the compound of Formula (III) could be used to treat mice implanted with 4T1 breast tumor cells was therefore determined. […] Treatment with the compound of Formula (III) increased the median survival time (MST) of mice bearing 4T1 breast tumors and receiving treatment with the compound of Formula (III) as compared to mice bearing 4T1 breast tumors and not receiving treatment (MST=28 days vs MST=22 days, respectively) (FIG. 6G).
For mouse Breast Cancer model, 1×10^5 4T1 cells were subcutaneously implanted into the fourth mammary pad of BABL/c mice, and mice were separated randomly into three groups: Control, compound of Formula (I), and compound of Formula (II). In the compound of Formula (I) group, mice were treated with the compound of Formula (I) for 14 days consecutively ([…], i.p, twice a day). In the compound of Formula (II) group, mice were administrated the compound of Formula (II) 14 days consecutively (300 μg/mouse, i.p, twice a day). Tumor sizes were measured every 3 days from day 5 post-tumor implantation and calculated with formula length×width^2/2.

Test [2] deals with cancer cells. The test is described as follows: Caspase-3 immunofluorescence in cancer cells. The settings on record: 200 μM, 48 hrs. Type of test: cell-based. Here is the method: 1×10^4 cancer cells were seeded in an 8-well chamber and treated with 200 μM of the compounds of Formulas (I) and (II) for 48 hrs. Controls were the equal amount of DMSO. Cells were stained with anti-caspase3. DAPI was used to counterstain the cell nuclei. The stained tissue sections were visualized using an EVOS™ FL Auto 2 Imaging System.

For test [3], the target named is T1, MBP-Sb9 (Homo sapiens, UniProt P50453).
T1 construct: made in house
T1 sequence (P50453 2-376): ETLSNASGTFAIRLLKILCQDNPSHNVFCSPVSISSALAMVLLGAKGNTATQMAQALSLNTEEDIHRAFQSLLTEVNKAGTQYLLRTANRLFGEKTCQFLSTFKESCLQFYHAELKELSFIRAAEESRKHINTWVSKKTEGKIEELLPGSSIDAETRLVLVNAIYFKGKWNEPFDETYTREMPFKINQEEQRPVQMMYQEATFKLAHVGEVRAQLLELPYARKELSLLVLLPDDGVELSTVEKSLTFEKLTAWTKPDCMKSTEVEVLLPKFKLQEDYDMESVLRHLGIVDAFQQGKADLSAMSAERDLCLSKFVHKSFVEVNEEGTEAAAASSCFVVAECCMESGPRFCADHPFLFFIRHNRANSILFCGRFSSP
Nature of the test: Saturation-Transfer Difference (STD) NMR assay. Type of test: binding. Conditions: 420 μM compound, 45 μM Sb9 protein, PBS pH 7.0, 25° C. The source says: The Saturation-Transfer Difference (STD) NMR assay was used to evaluate the binding of the compound of Formula (III) to Sb9. […] The saturation period was 3.0 seconds with irradiation at 0 ppm (on-resonance excitation) and −20 ppm (off-resonance excitation). The number of scans was 160 for the on and off-resonance spectra, respectively. Spectra were processed using Topspin software and apodized with exponential multiplication with 1.0 Hz line-broadening.
The Saturation-Transfer Difference (STD) NMR assay was used to evaluate the binding of the compounds of Formulas (I) and (II) to Sb9. […] The saturation period was 3.0 seconds with irradiation at 0.7 ppm (on-resonance excitation) and 20 ppm (off-resonance excitation). The number of scans was 800. The spectra were processed using Topspin software with 1.0 Hz line-broadening.
The Saturation-Transfer Difference (STD) NMR assay as described herein was used to evaluate the binding of the compound of Formula (III) to Sb9.

Test [4] has as its system B16-WT mouse melanoma tumors. Nature of the test: B16 melanoma tumor model in C57BL/6 mice. In kind it is in vivo. Here is the method:
as §1
The anti-tumor activity of the compound of Formula (III) in vivo was assessed. […] Treatment with the compound of Formula (III) increased the median survival time (MST) of mice bearing B 16-WT mouse melanoma tumors and receiving treatment with the compound of Formula (III) as compared to mice bearing B16-WT melanoma tumors and not receiving treatment (MST=39 days vs MST=26 days, respectively) (FIG. 51B). Next, the effect of the compound of Formula (III) on tumor immunity was examined.
The efficacy of the compound of Formula (III) was assessed in C57BL/6J mice (FIG. 18). B16 mouse melanoma cells were implanted subcutaneously into the right flanks of C57BL/6J mice, and the mice were randomized into three groups: (1) no treatment (control), (2) treatment with anti-PD1, and (3) treatment with Formula (III). The mice in the anti-PD1 group received 200 μg of anti-PD1 iv every 3 days, and those in the Formula (III) group received 300 μg of Formula (III) twice a day consecutively for 14 days.
A survival study using the compound of Formula (IV) in mice harboring B16 melanoma was performed. Mice implanted with B16 tumors were treated with the compound of Formula (IV) (n=8) and compared to a control group having B16 tumors and not receiving treatment with the compound of Formula (IV) (n=8).

Test [5] relates to B16 melanoma cells. The test is described as follows: Caspase-3 activity assay (EnzChek Caspase-3 Assay Kit), caspase-3 induction in tumor cells. Type of test: cell-based, mouse. Conditions: for Caspase-3 induction, Normalized to Formula (III) (%): relative to compound of Formula (III). The method in brief: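 B16 melanoma cells exposed to compounds for 24 h, lysed on ice 30 min, and lysate incubated with Z-DEVD-R110 substrate about 30 min at room temperature. Fluorescence read at ~496/520 nm against untreated-cell and no-enzyme controls; caspase-3 induction serves as surrogate for GrB activity from Sb9 inhibition.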

Consider `COC(=O)c1cc(N)c(O)cc1NC(=O)OC(C)(C)C` [Formula (I), methyl 5-amino-2-((tert-butoxycarbonyl)amino)-4-hydroxybenzoate], for which the “tumor size vs Control group” value in test [1] (Day 11 post-tumor implantation) and in test [1] (Day 14 post-tumor implantation) was “significantly decreased” in each case. Further, in test [2], the “caspase-3 expression compared to DMSO” value is listed as “significantly increased caspase-3 expression”. In test [3], the “binding to MBP-Sb9 by STD NMR” value is on record as “confirmed the binding activities”.
For `COC(=O)c1cc(N)c(O)cc1NC(=O)c1ccccc1` [Formula (II), methyl 5-amino-2-benzamido-4-hydroxybenzoate], the “tumor size vs Control group” value in test [1] (Day 14 post-tumor implantation) is “significantly decreased”. For the same compound, in test [2], the “caspase-3 expression compared to DMSO” value was “significantly increased caspase-3 expression” and the “increase of caspase-3 expression, comparison between compounds” value was “higher than the group treated with the compound of Formula (I)”. Also, in test [3], the “binding to MBP-Sb9 by STD NMR” value was “confirmed the binding activities”.
Regarding `NC(=O)c1ccc(O)c(O)c1` [Formula (IV), 3,4-dihydroxybenzamide], the “tumor size vs Control group” value in test [4] (Day 22 post-tumor implantation (FIG. 17A)) is given as “decreased”. Moreover, in test [4] (mice bearing B16 tumors, n=8 (FIG. 17A)), the “melanoma progression in vivo” value is reported as “suppressed melanoma progression”. Further, the “median survival time (MST)” value in test [4] (mice bearing B16 tumors, n=8 (FIG. 17B)) was found to be 34 days. In addition, the “binding to MBP-Sb9 by STD NMR” value in test [3] is “clearly show inter-molecular interaction of all aromatic peaks”.
As to `COc1cc(C(=O)NCCN(C)C)cc(OC)c1O` [N-[2-(dimethylamino)ethyl]-4-hydroxy-3,5-dimethoxybenzamide], the “Caspase-3 induction, Normalized to Formula (III) (%)” value in test [5] was −5.767%.
With `O=C(NCCc1ccco1)c1ccc2oc(-c3cccc(F)c3)nc2c1` [2-(3-fluorophenyl)-N-[2-(2-furyl)ethyl]-1,3-benzoxazole-5-carboxamide], the “Ratio of caspase-3 activity to Formula (III)” value (shortened to “Ratio of caspase-3 activity”) in test [5] is 0.09438.
For the compound `COCCCNC(=O)c1ccc2nc(C3CC3)oc2c1` [2-cyclopropyl-N-(3-methoxypropyl)-1,3-benzoxazole-6-carboxamide], in test [5], the “Caspase-3 induction, Normalized to Formula (III) (%)” value is listed as −4.759%.
Turning to `O=C(c1ccc2oc(-c3ccc(C(F)(F)F)cc3)nc2c1)N1CCC[C@H]1CO` [[(2S)-1-({2-[4-(trifluoromethyl)phenyl]-1,3-benzoxazol-5-yl}carbonyl)-2-pyrrolidinyl]methanol], the “Ratio of caspase-3 activity” value in test [5] was 0.1353.
As to `CCN(C)C(=O)c1ccc2ocnc2c1` [N-ethyl-N-methyl-1,3-benzoxazole-5-carboxamide], the “Caspase-3 induction, Normalized to Formula (III) (%)” value in test [5] was −74.9828%.
Still for that read-out and setting: the same measure for `COCCCNC(=O)c1ccc2nc(-c3cc(Cl)cc(Cl)c3)oc2c1` [2-(3,5-dichlorophenyl)-N-(3-methoxypropyl)-1,3-benzoxazole-6-carboxamide]: −31.5901%.
As for `Cn1cc(CCNC(=O)c2ccc3oc(-c4cccc(F)c4)nc3c2)cn1` [2-(3-fluorophenyl)-N-[2-(1-methyl-1H-pyrazol-4-yl)ethyl]-1,3-benzoxazole-5-carboxamide], the “Ratio of caspase-3 activity” value in test [5] was found to be 0.4475.
On the same count and under the same terms, then `CCn1ccnc1CN(C)C(=O)c1ccc2nc(-c3cccc(OC)c3)oc2c1` [N-[(1-ethyl-1H-imidazol-2-yl)methyl]-2-(3-methoxyphenyl)-N-methyl-1,3-benzoxazole-6-carboxamide], with 1.071.
For the compound `COc1cc(Br)c(C(=O)N2CCCC2)cc1OC` [1-(2-bromo-4,5-dimethoxybenzoyl)pyrrolidine], in test [5], the “Caspase-3 induction, Normalized to Formula (III) (%)” value came to 18.4794%.
For `Cc1nc2c(C(=O)NCc3ccccc3)cccc2o1` [N-benzyl-2-methyl-1,3-benzoxazole-4-carboxamide], the “Caspase-3 induction, Normalized to Formula (III) (%)” value in test [5] is reported as −46.2057%.
Same read-out and setting: then `COc1cc(C(=O)NCC2CCOCC2)cc(OC)c1O` [4-hydroxy-3,5-dimethoxy-N-[(oxan-4-yl)methyl]benzamide], with −78.7609%; and `CCOc1ccc(C(=O)N2CCCC2)cc1O` [2-ethoxy-5-(pyrrolidine-1-carbonyl)phenol], with −21.427%.
As to `COCCOC1CCN(C(=O)c2ccc3oc(-c4cccc(F)c4)nc3c2)CC1` [2-(3-fluorophenyl)-5-{[4-(2-methoxyethoxy)-1-piperidinyl]carbonyl}-1,3-benzoxazole], the “Ratio of caspase-3 activity” value in test [5] is given as 0.1314.
Turning to `O=C(c1ccc2oc(-c3cccc(F)c3)nc2c1)N1CCC(O)(c2ccccc2)CC1` [1-{[2-(3-fluorophenyl)-1,3-benzoxazol-5-yl]carbonyl}-4-phenyl-4-piperidinol], in test [5], the “Ratio of caspase-3 activity” value is 0.1773.
On the same count and under the same terms, then `CCOC(=O)C1CCCN(C(=O)c2ccc3nc(-c4cccc(OC)c4)oc3c2)C1` (centres unmarked) [ethyl 1-{[2-(3-methoxyphenyl)-1,3-benzoxazol-6-yl]carbonyl}-3-piperidinecarboxylate], with 0.1363.
As to `CCN(C)C(=O)c1ccc2oc(C)nc2c1` [N-ethyl-N,2-dimethyl-1,3-benzoxazole-5-carboxamide], in test [5], the “Caspase-3 induction, Normalized to Formula (III) (%)” value was −65.6678%.
With `CCN(C)C(=O)c1ccc(O)c(OC)c1` [N-ethyl-4-hydroxy-3-methoxy-N-methylbenzamide], the “Caspase-3 induction, Normalized to Formula (III) (%)” value in test [5] is on record as −33.3917%.
